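Cultured in 96-well plates, cells were exposed to test compound for 48 hours across five concentrations. GI50 marks 50% less growth.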 Calls of active or inactive are those of the source. Cut-off read from the data, not from the text of the source: active = GI50 up to about 1.1 µM and inactive = higher.
Key:
Test in all cases: DTP human tumour cell line panel, 48 h
KM12 = tested on: KM12
IGROV-1 = tested on: IGROV-1
EKVX = tested on: EKVX
HL-60 = tested on: HL-60
SF-295 = tested on: SF-295
HT-29 = tested on: HT-29
SN12C = tested on: SN12C
UO-31 = tested on: UO-31
SK-OV-3 = tested on: SK-OV-3
DMS-114 = tested on: DMS-114
SNB-78 = tested on: SNB-78
LOX IMVI = tested on: LOX IMVI
NCI-H23 = tested on: NCI-H23
NCI-H226 = tested on: NCI-H226
OVCAR-4 = tested on: OVCAR-4
K562 = tested on: K562
A498 = tested on: A498
M14 = tested on: M14
A549 = tested on: A549
U-251 = tested on: U-251
DLD-1 = tested on: DLD-1
SR = tested on: SR
M19-MEL = tested on: M19-MEL
COLO 205 = tested on: COLO 205
SK-MEL-5 = tested on: SK-MEL-5
786-0 = tested on: 786-0
OVCAR-3 = tested on: OVCAR-3
HOP-18 = tested on: HOP-18
TK-10 = tested on: TK-10
DMS-273 = tested on: DMS-273
Malme-3M = tested on: Malme-3M
XF498 = tested on: XF498
CCRF-CEM = tested on: CCRF-CEM
RPMI-8226 = tested on: RPMI-8226
HCT-15 = tested on: HCT-15
SF-268 = tested on: SF-268
OVCAR-8 = tested on: OVCAR-8
SW-620 = tested on: SW-620
SK-MEL-28 = tested on: SK-MEL-28
SNB-19 = tested on: SNB-19
HCC 2998 = tested on: HCC 2998
NCI-H460 = tested on: NCI-H460
OVCAR-5 = tested on: OVCAR-5
RXF 393 = tested on: RXF 393
UACC-62 = tested on: UACC-62
MOLT-4 = tested on: MOLT-4
SNB-75 = tested on: SNB-75
LXFL 529 = tested on: LXFL 529
ACHN = tested on: ACHN
SF-539 = tested on: SF-539
UACC-257 = tested on: UACC-257
HOP-92 = tested on: HOP-92
T47D = tested on: T47D
MDA-MB-231 = tested on: MDA-MB-231
Hs-578T = tested on: Hs-578T
MDA-N = tested on: MDA-N
KM-20L2 = tested on: KM-20L2
NCI/ADR-RES = tested on: NCI/ADR-RES
PC-3 = tested on: PC-3
HOP-62 = tested on: HOP-62
DU-145 = tested on: DU-145
SK-MEL-2 = tested on: SK-MEL-2
HCT-116 = tested on: HCT-116
BT-549 = tested on: BT-549
CAKI-1 = tested on: CAKI-1
MCF7 = tested on: MCF7
NCI-H522 = tested on: NCI-H522
MDA-MB-435 = tested on: MDA-MB-435

O=C1C2c3[nH]c4ccccc4c3C3CCC(c4ccccc4)CC3C2C(=O)N1c1ccccc1 (configuration not stated)
GI50 (KM12): > 100 µM (inactive)
GI50 (IGROV-1): > 100 µM (inactive)
GI50 (EKVX): > 100 µM (inactive)
GI50 (HL-60): 24.3 µM (inactive)
GI50 (SF-295): > 100 µM (inactive)
GI50 (HT-29): > 100 µM (inactive)
GI50 (SN12C): > 100 µM (inactive)
GI50 (UO-31): > 100 µM (inactive)
GI50 (SK-OV-3): > 100 µM (inactive)
GI50 (DMS-114): > 100 µM (inactive)
GI50 (SNB-78): 28.6 µM (inactive)
GI50 (LOX IMVI): > 100 µM (inactive)
GI50 (NCI-H23): > 100 µM (inactive)
GI50 (NCI-H226): > 100 µM (inactive)
GI50 (OVCAR-4): 58.5 µM (inactive)
GI50 (K562): 55.1 µM (inactive)
GI50 (A498): > 10 µM (inactive)
GI50 (M14): > 100 µM (inactive)
GI50 (A549): > 100 µM (inactive)
GI50 (U-251): > 100 µM (inactive)
GI50 (DLD-1): > 100 µM (inactive)
GI50 (SR): 92.5 µM (inactive)
GI50 (M19-MEL): > 100 µM (inactive)
GI50 (COLO 205): > 100 µM (inactive)
GI50 (SK-MEL-5): > 100 µM (inactive)
GI50 (786-0): > 100 µM (inactive)
GI50 (OVCAR-3): > 100 µM (inactive)
GI50 (HOP-18): > 100 µM (inactive)
GI50 (TK-10): > 100 µM (inactive)
GI50 (DMS-273): > 100 µM (inactive)
GI50 (Malme-3M): 36.8 µM (inactive)
GI50 (XF498): > 100 µM (inactive)
GI50 (CCRF-CEM): 44.3 µM (inactive)
GI50 (RPMI-8226): > 100 µM (inactive)
GI50 (HCT-15): > 100 µM
GI50 (SF-268): > 100 µM (inactive)
GI50 (OVCAR-8): > 100 µM (inactive)
GI50 (SW-620): > 100 µM (inactive)
GI50 (SK-MEL-28): > 100 µM (inactive)
GI50 (SNB-19): > 100 µM (inactive)
GI50 (HCC 2998): > 100 µM (inactive)
GI50 (NCI-H460): > 100 µM (inactive)
GI50 (OVCAR-5): > 100 µM (inactive)
GI50 (RXF 393): > 100 µM (inactive)
GI50 (UACC-62): > 100 µM (inactive)
GI50 (MOLT-4): 83.8 µM (inactive)
GI50 (SNB-75): 27.3 µM (inactive)
GI50 (LXFL 529): > 100 µM (inactive)
GI50 (ACHN): > 100 µM (inactive)
GI50 (SF-539): 97.7 µM (inactive)

c1nc(N2CC2)c2cnn(C3CCCCO3)c2n1 (configuration not stated)
GI50 (UACC-257): > 100 µM (inactive)
GI50 (KM12): > 100 µM (inactive)
GI50 (IGROV-1): > 100 µM (inactive)
GI50 (HOP-92): > 100 µM (inactive)
GI50 (EKVX): > 100 µM (inactive)
GI50 (T47D): > 100 µM (inactive)
GI50 (MDA-MB-231): > 100 µM (inactive)
GI50 (HL-60): > 100 µM (inactive)
GI50 (SF-295): > 100 µM (inactive)
GI50 (HT-29): > 100 µM (inactive)
GI50 (Hs-578T): > 100 µM (inactive)
GI50 (SN12C): > 100 µM (inactive)
GI50 (MDA-N): > 100 µM (inactive)
GI50 (KM-20L2): > 100 µM (inactive)
GI50 (UO-31): > 100 µM (inactive)
GI50 (SK-OV-3): > 100 µM (inactive)
GI50 (DMS-114): > 100 µM (inactive)
GI50 (NCI/ADR-RES): > 100 µM (inactive)
GI50 (SNB-78): > 100 µM (inactive)
GI50 (LOX IMVI): > 100 µM (inactive)
GI50 (NCI-H23): > 100 µM (inactive)
GI50 (NCI-H226): > 100 µM (inactive)
GI50 (OVCAR-4): > 100 µM (inactive)
GI50 (PC-3): > 100 µM (inactive)
GI50 (HOP-62): > 100 µM (inactive)
GI50 (K562): 36.6 µM (inactive)
GI50 (A498): > 100 µM (inactive)
GI50 (DU-145): > 100 µM (inactive)
GI50 (M14): > 100 µM (inactive)
GI50 (A549): > 100 µM (inactive)
GI50 (U-251): > 100 µM (inactive)
GI50 (DLD-1): > 100 µM (inactive)
GI50 (SK-MEL-2): > 100 µM (inactive)
GI50 (SR): > 100 µM (inactive)
GI50 (M19-MEL): > 100 µM (inactive)
GI50 (COLO 205): > 100 µM (inactive)
GI50 (SK-MEL-5): > 100 µM (inactive)
GI50 (HCT-116): > 100 µM (inactive)
GI50 (BT-549): > 100 µM (inactive)
GI50 (CAKI-1): > 100 µM (inactive)
GI50 (786-0): > 100 µM (inactive)
GI50 (MCF7): > 100 µM (inactive)
GI50 (OVCAR-3): > 100 µM (inactive)
GI50 (NCI-H522): > 100 µM (inactive)
GI50 (TK-10): > 100 µM (inactive)
GI50 (DMS-273): > 100 µM (inactive)
GI50 (Malme-3M): > 100 µM (inactive)
GI50 (XF498): > 100 µM (inactive)
GI50 (CCRF-CEM): > 100 µM (inactive)
GI50 (RPMI-8226): > 100 µM (inactive)
GI50 (HCT-15): > 100 µM
GI50 (SF-268): > 100 µM (inactive)
GI50 (OVCAR-8): > 100 µM (inactive)
GI50 (MDA-MB-435): > 100 µM (inactive)
GI50 (SW-620): > 100 µM (inactive)
GI50 (SK-MEL-28): > 100 µM (inactive)
GI50 (SNB-19): > 100 µM (inactive)
GI50 (HCC 2998): > 100 µM (inactive)
GI50 (NCI-H460): > 100 µM (inactive)
GI50 (OVCAR-5): > 100 µM (inactive)
GI50 (RXF 393): > 100 µM (inactive)
GI50 (UACC-62): > 100 µM (inactive)
GI50 (MOLT-4): > 100 µM (inactive)
GI50 (SNB-75): > 100 µM (inactive)
GI50 (LXFL 529): > 100 µM (inactive)
GI50 (ACHN): > 100 µM (inactive)
GI50 (SF-539): > 100 µM (inactive)

— ChEMBL document CHEMBL1201862, “PubChem BioAssay data set” (2004)
